Measurements: patent publication US4804658A, “Imidazopyridine derivatives and pharmaceutical compositions” (G. D. Searle & Co., priority 1986, dated 1989)
pIC50: −log10 of the molar value.

system: PAF-induced primary aggregation; experiment: PAF-induced primary aggregation in human platelet-rich plasma; format: cell-based; conditions: indomethacin-treated PRP, test compound incubated two minutes at 37° C. before sub-optimal dose of PAF, read-out: IC50, inhibition of PAF-induced primary aggregation in human platelet-rich plasma
Protocol: PAF-Induced Primary Aggregation in Human Platelet-Rich Plasma
Human venous blood was collected from healthy male donors, who had denied any medication during the previous 14 days. Nine volumes of blood were mixed with one volume of 3.24% trisodium citrate. The citrated blood was centrifuged at 160 g for ten minutes at 22° C. to obtain platelet rich plasma (PRP). The platelets were then counted on a Coulter counter, and the platelet count was adjusted to 200,000 per μl with plasma. The PRP was then treated with indomethacin dissolved in dimethylsulfoxide (10 μg indomethacin per ml PRP). A stock solution of PAF (C16 or C18 β-acetyl-γ-O-alkyl-L-α-phosphatidylcholine; 1 mg/ml) was prepared as a solution in chloroform-methanol (9:1 v/v). A 10 μl portion of the stock solution was evaporated to dryness under nitrogen and dissolved in 0.15M sodium chloride-0.15M Tris.HCl (90:10 v/v) buffer containing 0.25% bovine albumin. Small volumes of the PAF solution (5-15 μl) were added to 0.5 ml samples of indomethacin-treated PRP and the aggregation trace was recorded using an aggregometer. A dose reponse curve was obtained and a sub-optimal dose of PAF was determined for use in inhibition studies.
Indomethacin-treated PRP (0.5 ml) was incubated with a test compound dissolved in buffer (ca. pH 5) or dimethylsulfoxide for two minutes at 37° C. prior to addition of the sub-optimal dose of PAF. The subsequent aggregation trace was recorded and the present inhibition of PAF primary aggregation was determined by comparison with a control PAF-induced aggregation trace. (Due to variability in PAF-induced aggregation within a given PRP sample, a control PAF-induced aggregation was determined every two or three samples.) An inhibition dose-response curve was determined for each test compound and the IC50 value calculated. Table I lists IC50 's for illustrative examples of the compounds of this invention.

**Q.** How did the pIC50 turn out when `CCOC(=O)C(C)(C)CCCCn1cnc2ccncc21` [10(A), Ethyl 2,2-dimethyl-6-(3H-imidazo[4,5-c]pyridin-3-yl)hexanoate] was run?
**A.** 4.36

**Q.** With `CCOC(=O)c1ccc(Cn2cnc3ccncc32)cc1` [1(A), Ethyl 4-(3H-imidazo[4,5-c]pyridin-3-ylmethyl)benzoate] as the molecule, how does the pIC50 read?
**A.** 3.87

**Q.** With `CCOC(=O)c1ccc(Cn2cnc3cccnc32)cc1` [14(A), Ethyl 4-(3H-imidazo[4,5-b]pyridin-3-ylmethyl)benzoate] as the molecule, how does the pIC50 read?
**A.** 4.24

**Q.** With `O=C(c1ccc(Cn2cnc3cnccc32)cc1)N1CCOCC1` [Example 3, [4-(1H-imidazo[4,5-c]pyridin-1-ylmethyl)phenyl](4-morpholinyl)methanone] as the molecule, how does the pIC50 read?
**A.** 4.31

**Q.** With `O=C(c1ccc(Cn2cnc3ncccc32)cc1)N1CCOCC1` [Example 15, [4-(1H-Imidazo[4,5-b]pyridin-1-ylmethyl)phenyl](4-morpholinyl)methanone] as the molecule, how does the pIC50 read?
**A.** 4.06

**Q.** `CCOC(=O)CCCCCCn1cnc2cnccc21` [9(B), Ethyl 7-(1H-imidazo[4,5-c]pyridin-1-yl)heptanoate] was tested. Which pIC50 did it give?
**A.** 4.70

**Q.** With `CCOC(=O)c1cccc(Cn2cnc3ccncc32)c1` [2(A), Ethyl 3-(3H-imidazo[4,5-c]pyridin-3-ylmethyl)benzoate] as the molecule, how does the pIC50 read?
**A.** 3.78

**Q.** `CN(C(=O)CCCCCCn1cnc2ccncc21)C1CCCCC1` [11(A), N-Cyclohexyl-N-Methyl-7-(3H-imidazo[4,5-c]pyridin-3-yl)heptanamide] was tested. Which pIC50 did it give?
**A.** 3.30

**Q.** With `CCOC(=O)CCCCn1cnc2cnccc21` [7(B), Ethyl 5-(1H-imidazo[4,5-c]pyridin-1-yl)pentanoate] as the molecule, how does the pIC50 read?
**A.** 3.73

**Q.** `CCOC(=O)c1ccc(Cn2cnc3cnccc32)cc1` [1(B), Ethyl 4-(1H-imidazo[4,5-c]pyridin-1-ylmethyl)benzoate] was tested. Which pIC50 did it give?
**A.** 4.34

**Q.** `CCOC(=O)c1cccc(Cn2cnc3cnccc32)c1` [2(B), Ethyl 3-(1H-imidazo[4,5-c]pyridin-1-ylmethyl)benzoate] was tested. Which pIC50 did it give?
**A.** 4.10

**Q.** `CCOC(=O)CCCCCn1cnc2ccncc21` [8(A), Ethyl 6-(3H-imidazo[4,5-c]pyridin-3-yl)hexanoate] was tested. Which pIC50 did it give?
**A.** 3.99

**Q.** `c1cc2ncn(CCCCc3nnnn3C3CCCCC3)c2cn1` [12(A), 3-[4-(1-Cyclohexyl-1H-tetrazol-5-yl)butyl]-3H-imidazo[4,5-c]pyridine] was tested. Which pIC50 did it give?
**A.** 4.25

**Q.** With `CCOC(=O)CCCCCCn1cnc2ccncc21` [9(A), Ethyl 7-(3H-imidazo[4,5-c]pyridin-3-yl)heptanoate] as the molecule, how does the pIC50 read?
**A.** 4.32

**Q.** With `CCOC(=O)C(C)(C)CCCCn1cnc2cnccc21` [10(B), Ethyl 2,2-dimethyl-6-(1H-imidazo[4,5-c]pyridin-1-yl)hexanoate] as the molecule, how does the pIC50 read?
**A.** 4.82

**Q.** How did the pIC50 turn out when `c1cc2c(cn1)ncn2CCCCCc1nnnn1C1CCCCC1` [Example 13, 1-[5-(1-Cyclohexyl-1H-tetrazol-5-yl)pentyl]-1H-imidazo[4,5-c]pyridine] was run?
**A.** 4.48

**Q.** `c1cnc2ncn(CCCCc3nnnn3C3CCCCC3)c2c1` [16(B), 1-[4-(1-Cyclohexyl-1H-tetrazol-5-yl)butyl]-1H-imidazo[4,5-b]pyridine] was tested. Which pIC50 did it give?
**A.** 3.95

**Q.** How did the pIC50 turn out when `CCOC(=O)c1ccc(Cn2cnc3ncccc32)cc1` [14(B), Ethyl 4-(1H-imidazo[4,5-b]pyridin-1-ylmethyl)benzoate] was run?
**A.** 4.54

**Q.** How did the pIC50 turn out when `CCOC(=O)CCCCCn1cnc2cnccc21` [8(B), Ethyl 6-(1H-imidazo[4,5-c]pyridin-1-yl)hexanoate] was run?
**A.** 4.69

**Q.** With `O=C(c1ccc(Cn2cnc3ccncc32)cc1)N1CCOCC1` [Example 4, [4-(3H-imidazo[4,5-c]pyridin-3-ylmethyl)phenyl](4-morpholinyl)methanone] as the molecule, how does the pIC50 read?
**A.** 3.67

**Q.** With `c1cc2c(cn1)ncn2CCCCc1nnnn1C1CCCCC1` [12(B), 1-[4-(1-Cyclohexyl-1H-tetrazol-5-yl)butyl]-1H-imidazo[4,5-c]pyridine] as the molecule, how does the pIC50 read?
**A.** 5.10

**Q.** With `CN(C(=O)c1ccc(Cn2cnc3cnccc32)cc1)C1CCCCC1` [Example 5, N-Cyclohexyl-N-methyl-4-(1H-imidazo[4,5-c]pyridin-1-yl-methyl)benzamide] as the molecule, how does the pIC50 read?
**A.** 5.30

**Q.** How did the pIC50 turn out when `CCOC(=O)CCCCn1cnc2ccncc21` [7(A), Ethyl 5-(3H-imidazo[4,5-c]pyridin-3-yl)pentanoate] was run?
**A.** 3.30

**Q.** With `c1cnc2c(c1)ncn2CCCCc1nnnn1C1CCCCC1` [16(A), 3-[4-(1-Cyclohexyl-1H-tetrazol-5-yl)butyl]-3H-imidazo[4,5-b]pyridine] as the molecule, how does the pIC50 read?
**A.** 3.93

**Q.** With `CCOC(=O)CCCn1cnc2ccncc21` [6(A), Ethyl 4-(3H-imidazo[4,5-c]pyridin-3-yl)butanoate] as the molecule, how does the pIC50 read?
**A.** 3.85
